Data as given in patent US20210246115A1 (Bioimics AB, priority 2017, published 2021).
In brackets after ≈: the same amount, converted by molar mass. Where a name gives a salt, the structure may show the parent alone. Read-outs that look alike come from different tables or passages of the source.

What was measured:
[1] = tested on: Escherichia coli (ATCC25922); experiment: MIC, broth microdilution (CLSI), Escherichia coli; conditions: Escherichia coli, ATCC25922, read-out: E. coli ATCC 25922 MIC, Table XIII
[2] = tested on: E. coli RNase P RNA, M1 RNA; experiment: Inhibition of bacterial RNase P activity, IC50 determination (cleavage of pATSerUG by M1 RNA); type: biochemical; conditions: NI: No inhibition
[3] = tested on: Staphylococcus aureus subsp. aureus (ATCC29213); experiment: MIC, broth microdilution (CLSI), Staphylococcus aureus ATCC29213; type: cell-based; conditions: Staphylococcus aureus
[4] = ATCC29213, read-out: S. aureus ATCC 29213 MIC, Table XIII
[5] = ATCC29213, Table XIII, read-out: S. aureus ATCC 29213 MIC

Row | MIC [1] [µg/mL] | IC50 [2] [µM] | IC50 ([2]; hydrochloride salt) [µM] | MIC [3, 5] [µg/mL] | SMILES | MIC [3, 4] [µg/mL]
1 | 4 |  | 18 | 4 | Cc1cccc(C(CCNCCCN)c2cn(C3CCCCC3)c3ccccc23)c1.Cl.Cl (stereo not drawn) [Compound 310, N1-(3-(1-cyclohexyl-1H-indol-3-yl)-3-(m-tolyl)propyl)propane-1,3-diamine hydrochloride salt] | 
2 | 4 | 4.4 |  | 2 | CCCCCCCCn1cc(C(CCNCCCN)C2CCCCC2)c2cc(C#N)ccc21.Cl.Cl (stereo not drawn) [Compound 427, 3-(3-((3-aminopropyl)amino)-1-cyclohexylpropyl)-1-octyl-1H-indole-5-carbonitrile hydrochloride salt] | 
3 | 8 (≈ 17.8 µM) | 8.3 |  | 4 (≈ 8.89 µM) | CC(C)=CCC/C(C)=C/Cn1cc(C(CCNCCCN)C2CCCCC2)c2ccccc21 (stereo not drawn) [Compound 421, (E)-N1-(3-cyclohexyl-3-(1-(3,7-dimethylocta-2,6-dien-1-yl)-1H-indol-3-yl)propyl)propane-1,3-diamine] | 
4 | 8 | 34 |  | 8 | Cc1cccc(C(CCNCCCN)c2cn(C3CCCCC3)c3ccc(C#N)cc23)c1.Cl.Cl (stereo not drawn) [Compound 379, 3-(3-((3-aminopropyl)amino)-1-(m-tolyl)propyl)-1-cyclohexyl-1H-indole-5-carbonitrile hydrochloride salt] | 
5 | > 128 | 120 |  | 8 | CC(=O)N1CCC(NCCC(c2cccc(C)c2)c2cn(C3CCCCC3)c3ccccc23)CC1.Cl (stereo not drawn) [Compound 373, 1-(4-((3-(1-cyclohexyl-1H-indol-3-yl)-3-(m-tolyl)propyl)amino)piperidin-1-yl) ethan-1-one salt] | 
6 | 32 (≈ 61.9 µM) | 40 |  | 16 (≈ 31 µM) | NCCCNCCC(c1cccc(OC(F)(F)F)c1)c1cn(C2CCCCC2)c2ccc(C(N)=O)cc12 (stereo not drawn) [Compound 376, 3-(3-((3-aminopropyl)amino)-1-(3-(trifluoromethoxy)phenyl)propyl)-1-cyclohexyl-1H-indole-5-carboxamide] | 
7 | 4 | 19 |  | 4 | Cc1cccc(-c2ccc3c(c2)c(CCNCCCN)cn3C2CCCCC2)c1.Cl.Cl [Compound 384, N1-(2-(1-cyclohexyl-5-(m-tolyl)-1H-indol-3-yl)ethyl)propane-1,3-diamine hydrochloride salt] | 
8 | 8 | 23 |  | 4 | Cl.Cl.N#Cc1ccc2c(c1)c(C(CCN[C@H]1CC[C@H](N)CC1)C1CCCCC1)cn2C1CCCCC1 (stereo partly drawn) [Compound 407, 3-(3-(((1R,4R)-4-aminocyclohexyl)amino)-1-cyclohexylpropyl)-1-cyclohexyl-1H-indole-5-carbonitrile salt] | 
9 | 4 | 4.7 |  | 4 | Cc1cccc(-c2ccc3c(c2)c(CCCNCCCN)cn3CC2CCCCC2)c1.Cl.Cl [Compound 375, N1-(3-(1-(cyclohexylmethyl)-5-(m-tolyl)-1H-indol-3-yl)propyl)propane-1,3-diamine hydrochloride salt] | 
10 | 4 | 8.5 |  | 2 | Cc1cccc(C(CCNCCCN)c2cn(CC3CCCCC3)c3ccc([N+](=O)[O-])cc23)c1 (stereo not drawn) [Compound 424, N1-(3-(1-cyclohexylmethyl)-5-nitro-1H-indol-3-yl)-3-(m-tolyl)propyl)propane-1,3-diamine hydrochloride salt] | 
11 | 4 | 18 |  | 2 | Cc1cccc(C(CCNCCCN)c2cn(C3CCCCC3)c3ccc(-c4ccncc4)cc23)c1.Cl.Cl (stereo not drawn) [Compound 412, N1-(3-(1-cyclohexyl-5-(pyridin-4-yl)-1H-indol-3-yl)-3-(m-tolyl)propyl) propane-1,3-diamine hydrochloride salt] | 
12 | 4 | 35 |  | 4 | NCCCNC1CCCC(c2cn(C3CCCCC3)c3ccc(Br)cc23)C1 (stereo not drawn) [Compound 380, N1-(3-(5-bromo-1-cyclohexyl-1H-indol-3-yl)cyclohexyl)propane-1,3-diamine salt] | 
13 | 8 | 39 |  | 8 | Cc1cccc(C(CCN[C@H]2CC[C@H](N)CC2)c2cn(C3CCCC3)c3ccccc23)c1.Cl.Cl (stereo partly drawn) [Compound 332, (1R,4R)-N1-(3-(1-cyclopentyl-1H-indol-3-yl)-3-(m-tolyl)propyl) cyclohexane-1,4-diamine hydrochloride salt] | 
14 | 4 | 16 |  | 2 | Cl.Cl.NCCCNCCC(c1cc(Cl)cc(Cl)c1)c1cn(C2CCCCC2)c2ccccc12 (stereo not drawn) [Compound 349, N1-(3-(1-cyclohexyl-1H-indol-3-yl)-3-(3,5-dichlorophenyl)propyl) propane-1,3-diamine hydrochloride salt] | 
15 | 8 | 89 |  | 16 | Cc1cccc(C(CCNC2CCNCC2)c2cn(C3CCCC3)c3ccccc23)c1.Cl.Cl (stereo not drawn) [Compound 333, N-(3-(1-cyclopentyl-1H-indol-3-yl)-3-(m-tolyl)propyl)piperidin-4-amine hydrochloride salt] | 
16 | 4 | 8.3 |  | 4 | CCCCCCCCn1cc(C(CCNCCCN)C(CC)CC)c2ccccc21.Cl.Cl (stereo not drawn) [Compound 426, N1-(4-ethyl-3-(1-octyl-1H-indol-3-yl)hexyl)propane-1,3-diamine hydrochloride salt] | 
17 | 4 | 52 |  | 8 | Cl.Cl.NCCCNCCC(c1cccc(F)c1)c1cn(C2CCCCC2)c2ccccc12 (stereo not drawn) [Compound 344, N1-(3-(1-cyclohexyl-1H-indol-3-yl)-3-(3-fluorophenyl)propyl) propane-1,3-diamine hydrochloride salt] | 
18 | > 128 | 21 |  | 4 (≈ 7.12 µM) | Cc1cccc(C(CCNCCCNS(=O)(=O)c2ccc(F)cc2)c2cn(C3CCCCC3)c3ccccc23)c1 (stereo not drawn) [Compound 365, N-(3-((3-(1-cyclohexyl-1H-indol-3-yl)-3-(m-tolyl)propyl)amino)propyl)-4-fluorobenzenesulfonamide] | 
19 | 4 | 37 |  | 4 | Cl.Cl.NCCCNCCC(c1cccc(Cl)c1)c1cn(C2CCCCC2)c2ccccc12 (stereo not drawn) [Compound 356, N1-(3-(3-chlorophenyl)-3-(1-cyclohexyl-1H-indol-3-yl)propyl) propane-1,3-diamine hydrochloride salt] | 
20 | 2 | 26 |  | 4 | CCC(CC)C(CCNCCCN)c1cn(C2CCCCC2)c2ccccc12.Cl.Cl (stereo not drawn) [Compound 416, N1-(3-(1-cyclohexyl-1H-indol-3-yl)-4-ethylhexyl)propane-1,3-diamine hydrochloride salt] | 
21 | 4 | 11 |  | 2 | Cl.Cl.NCCCNCCC(c1cn(C2CCCCC2)c2ccc(Br)cc12)C1CCCCC1 (stereo not drawn) [Compound 429, N1-(3-(5-bromo-1-cyclohexyl-1H-indol-3-yl)-3-cyclohexylpropyl) propane-1,3-diamine hydrochloride salt] | 

Row | SMILES | MIC [1] [µg/mL] | IC50 [2] [µM] | IC50 ([2]; hydrochloride salt) [µM] | MIC [3, 5] [µg/mL] | MIC [3, 4] [µg/mL]
22 | Cc1cccc(C(CCN(CCCN)CCCN)c2cn(C3CCCCC3)c3ccccc23)c1 (stereo not drawn) [Compound 363, N1-(3-aminopropyl)-N1-(3-(1-cyclohexyl-1H-indol-3-yl)-3-(m-tolyl)propyl)propane-1,3-diamine hydrochloride salt] | 32 | 12 |  |  | 16
23 | N#Cc1ccc2c(C(CCNC3CCNCC3)c3cccc(OC(F)(F)F)c3)cn(C3CCCCC3)c2c1 (stereo not drawn) [Compound 414, 1-cyclohexyl-3-(3-(piperidin-4-ylamino)-1-(3-(trifluoromethoxy)phenyl)propyl)-1H-indole-6-carbonitrile hydrochloride salt] | 8 | 16 |  |  | 4
24 | Cc1cccc(C(CCNC2CCNCC2)c2cn(CC3CCCCC3)c3ccc([N+](=O)[O-])cc23)c1 (stereo not drawn) [Compound 428, N-(3-(1-(cyclohexylmethyl)-5-nitro-1H-indol-3-yl)-3-(m-tolyl)propyl)piperidin-4-amine hydrochloride salt] | 32 | 15 |  |  | 4
25 | Cc1cccc(C(CCNCC(N)CN)c2cn(C3CCCCC3)c3ccccc23)c1 (stereo not drawn) [Compound 394, N1-(3-(1-cyclohexyl-1H-indol-3-yl)-3-(m-tolyl)propyl)propane-1,2,3-triamine hydrochloride salt] | 32 | 15 |  |  | 8
26 | Cl.Cl.NCCCNCCC(c1cccc(OC(F)(F)F)c1)c1cn(C2CCCCC2)c2ccccc12 (stereo not drawn) [Compound 370, N1-(3-(1-cyclohexyl-1H-indol-3-yl)-3-(3-(trifluoromethoxy)phenyl)propyl) propane-1,3-diamine salt] | 4 | 8.4 |  | 4 | 
27 | Cc1cccc(C(CCNC2CCNCC2)c2cn(C3CC4CCC3C4)c3ccccc23)c1 (stereo not drawn) [Compound 323, hydrochloride salt] | 4 | 42 |  |  | 8
28 | FC(F)(F)Oc1cccc(-c2ccc3c(c2)c(C2CCCC(NC4CCNCC4)C2)cn3C2CCCCC2)c1 (stereo not drawn) [Compound 403, N-(3-(1-cyclohexyl-5-(3-(trifluoromethoxy)phenyl)-1H-indol-3-yl)cyclohexyl) piperidin-4-amine hydrochloride salt] | 16 | 7 |  |  | 4
29 | Cc1cccc(C(CCNC2CCNCC2)c2cn(C3CCCCC3)c3ccccc23)c1 (stereo not drawn) [Compound 309, N-(3-(1-cyclohexyl-1H-indol-3-yl)-3-(m-tolyl)propyl)piperidin-4-amine hydrochloride salt] | 4 | 39 |  |  | 8
30 | NCCCNCCC(c1cn(C2CCCCC2)c2ccccc12)C1CCCCC1 (stereo not drawn) [Compound 383, N1-(3-cyclohexyl-3-(1-cyclohexyl-1H-indol-3-yl)propyl)propane-1,3-diamine] | 4 (≈ 10.1 µM) | 28 |  | 4 (≈ 10.1 µM) | 
